Experimental findings from article PMC3894558, “Chemical signatures and new drug targets for gametocytocidal drug development” (Scientific Reports, 2014) are described below.

Read-outs that look alike come from different tables or passages of the source.

The subject of this test is P. falciparum 3D7 gametocytes. Put plainly: alamarBlue gametocyte viability assay, strain 3D7. Format: cell-based, Plasmodium falciparum. Particulars: Malaria Box; for Max Resp: DMSO set at 0%, 100 nM epoxomicin set at -100%; for Curve Class / IC50: stages III-V 3D7 gametocytes; for IC50: 11 concentrations, 1:3 dilution. (In general: The colour change of resazurin is a common sign of viable cells or microbes.)

For orientation: IC50 means the midpoint of a concentration-inhibition curve.

Take `CCN(CC)CCn1c(=N)n(CC(O)c2ccc(Cl)c(Cl)c2)c2ccccc21.Cl` (stereo not drawn) [MMV000248]: the “Max Resp” value is recorded as -99% and the “Curve Class” value is given as -1.1. Further, the IC50 (read-out: IC50) came out at 1.48 µM.
In the case of `CCOc1ccc(Nc2c3ccccc3nc3ccccc23)cc1.Cl` [MMV000304], the “Max Resp” value is recorded as -95% and the “Curve Class” value was -2.1. Further, the IC50 (read-out: IC50) was found to be 16.6 µM.
Consider `Cc1ccc2nc(C)cc(Nc3cccc(C(F)(F)F)c3)c2c1.Cl` [MMV000326], for which the “Max Resp” value was -52%, the “Curve Class” value is reported as -2.2 and the IC50 result is reported as “Inactive”.
Taken in the same sequence, the figures for `Br.CCn1c2c(c(=N)c3c1CCC3)CCCC2` [MMV000340] were -49%, -2.2 and “Inactive”.
In the case of `O=C(O)C(=O)O.Oc1ccc(Br)cc1CN1CCN(Cc2cccc(F)c2)CC1` [MMV000356], the “Max Resp” value was -72% and the “Curve Class” value was -1.2. Also, the IC50 (read-out: IC50) was determined as 2.64 µM.
Taken in the same sequence, the figures for `CCOc1ccc2c(c1)CN(Cc1ccc(Cl)cc1)CO2` [MMV000443] were -54%, -1.2 and 1.32 µM.
For the compound `CCCCCn1c(=N)n(CC(O)COc2cccc(C)c2)c2ccccc21.Cl` (stereo not drawn) [MMV000444], the “Max Resp” value is -107% and the “Curve Class” value is -1.1. For the same compound, the IC50 (read-out: IC50) is 8.33 µM.
Regarding `CCCCCCn1c(=N)n(CC(O)COc2cccc(C)c2)c2ccccc21.Cl` (stereo not drawn) [MMV000445], the “Max Resp” value was -110% and the “Curve Class” value is given as -1.1. The IC50 (read-out: IC50) is 7.43 µM.
As for `CN(C)CCCNc1c2ccccc2nc2ccccc12` [MMV000448], the “Max Resp” value is -105% and the “Curve Class” value is recorded as -1.1. In addition, the IC50 (read-out: IC50) is 1.87 µM.
On to `CCOc1cc2c(cc1OCC)C(c1cc(Cl)ccc1O)NCC2` (stereo not drawn) [MMV000478], for which the “Max Resp” value was -76% and the “Curve Class” value was -1.2. Further, the IC50 (read-out: IC50) was 4.18 µM.
As for `CCOc1cc2c(cc1OCC)C(c1cc(Cl)c(O)c(OCC)c1)NCC2` (stereo not drawn) [MMV000481], the “Max Resp” value is -81% and the “Curve Class” value was -1.1. For the same compound, the IC50 (read-out: IC50) came to 5.26 µM.
Turning to `CCOc1cc2c(cc1OCC)C(c1cc(C)c(O)c(C)c1)NCC2.Cl` (stereo not drawn) [MMV000483], the “Max Resp” value is on record as -82% and the “Curve Class” value was -1.1. Moreover, where the note is “read-out: IC50”, the concentration for half-maximal inhibition (IC50) is 5.26 µM.
With `CCN(CC)c1cc(C)c2cc(NC(=O)c3cccc(OC)c3)ccc2n1` [MMV000498], the “Max Resp” value is recorded as -20%, the “Curve Class” value is given as 4 and the IC50 entry is listed as “Inactive”.
Taken in the same sequence, the figures for `CCCN(CCC)CCCNC(=O)c1cc2c(-c3ccc(OC)c(OC)c3)nn(C)c2s1` [MMV000561] were -52%, -2.2 and “Inactive”.
Regarding `CCc1ccc(Nc2cc(C)c3ccc(O)cc3n2)cc1.Cl` [MMV000570], the “Max Resp” value was -29% and the “Curve Class” value was -1.2. The IC50 (read-out: IC50) was 0.469 µM.
The like results for `COc1ccc(-c2cc(=O)oc3c4c(ccc23)OCN(Cc2ccc(F)cc2)C4)cc1` [MMV000604] were, in that order, -55%, -2.2 and 7.43 µM.
Take `COc1ccc(C(O)(CCC(C)C)C(CN2CCOCC2)c2ccc(Cl)cc2)cc1.Cl` (stereo not drawn) [MMV000617]: the “Max Resp” value is -31%, the “Curve Class” value is listed as -2.4 and the IC50 result is listed as “Inactive”.
Taken in the same sequence, the figures for `CCCCC(O)(c1ccc(Cl)cc1)C(CN1CCOCC1)c1ccc(Cl)cc1.Cl` (stereo not drawn) [MMV000619] were -51%, -2.2 and “Inactive”.
`CC(O)(c1ccc(Cl)cc1)C(CN1CCCCC1)c1ccccc1.Cl` (stereo not drawn) [MMV000620]: the “Max Resp” value was -78% and the “Curve Class” value was -2.2. Under “read-out: IC50”, the half-inhibitory concentration (IC50) was found to be 9.35 µM.
In the case of `CCCCCCC(O)(c1ccc(F)cc1)C(CN1CCOCC1)c1ccccc1.Cl` (stereo not drawn) [MMV000621], the “Max Resp” value is given as -59% and the “Curve Class” value is given as -2.2. Moreover, the IC50 (read-out: IC50) turned out to be 37.2 µM.
Taken in the same sequence, the figures for `CC1CCCCN1CCCNC(=O)c1ccc2c(c1)sc1nc(-c3ccc(F)cc3)cn12` (stereo not drawn) [MMV000634] were -84%, -2.1 and 10.5 µM.
Taken in the same sequence, the figures for `COc1ccc(NC(=O)C2c3ccccc3C(=O)N(CC(C)C)C2c2cccs2)cc1Cl` (stereo not drawn) [MMV000642] were -75%, -2.2 and 9.35 µM.
As for `COc1ccccc1CNC(=O)C1c2ccccc2C(=O)N(CC(C)C)C1c1cccs1` (stereo not drawn) [MMV000648], the “Max Resp” value is recorded as -46%, the “Curve Class” value is -2.2 and the half-maximal inhibitory concentration (IC50) result is recorded as “Inactive”.
On to `CCOc1ccccc1CNC(=O)C1c2ccccc2C(=O)N(CC(C)C)C1c1cccs1` (stereo not drawn) [MMV000653], for which the “Max Resp” value is reported as -49%, the “Curve Class” value was -2.2 and the IC50 result is “Inactive”.
For `COc1ccc(NC(=O)C2c3ccccc3C(=O)N(CC(C)C)C2c2cccs2)cc1` (stereo not drawn) [MMV000662], the “Max Resp” value was -81% and the “Curve Class” value is listed as -1.1. For the setting “read-out: IC50”, the half-maximal inhibitory concentration (IC50) was 4.18 µM.
`Cc1ccc(C2CC(C(F)(F)F)n3nc(C(=O)N4CCN(C(c5ccccc5)c5ccccc5)CC4)cc3N2)cc1` (stereo not drawn) [MMV000699]: the “Max Resp” value is on record as -70% and the “Curve Class” value is on record as -2.2. In addition, the IC50 (read-out: IC50) is 29.6 µM.
Consider `CCOC(=O)c1cnc2ccc(OC)cc2c1Nc1ccc(N2CCN(C)CC2)cc1` [MMV000704], for which the “Max Resp” value is reported as -69% and the “Curve Class” value is given as -2.2. In addition, the half-maximal inhibitory concentration (IC50) (read-out: IC50) was 23.5 µM.
`Cc1ccnc(NC(c2cccc(OCc3ccccc3)c2)c2ccc3cccnc3c2O)c1` (stereo not drawn) [MMV000720]: the “Max Resp” value was -112% and the “Curve Class” value was -2.1. Moreover, for the setting “read-out: IC50”, the 50% inhibitory concentration (IC50) came to 13.2 µM.
As for `Oc1ccc(-c2nc(-c3ccc4oc5ccc(-c6[nH]c(-c7ccc(O)cc7)nc6-c6ccccc6)cc5c4c3)c(-c3ccccc3)[nH]2)cc1` [MMV000753], the “Max Resp” value was -68% and the “Curve Class” value was -2.2. In addition, for the setting “read-out: IC50”, the concentration for half-maximal inhibition (IC50) was found to be 18.7 µM.
The like results for `Oc1c(CN2CCN(c3ccccc3F)CC2)cc(Br)c2cccnc12` [MMV000760] were, in that order, -91%, -1.1 and 3.72 µM.
Take `CCCOCc1cc(CN2CCN(c3cccc(Cl)c3)CC2)c(O)c2ncccc12` [MMV000787]: the “Max Resp” value was -98% and the “Curve Class” value was -1.1. Also, the IC50 (read-out: IC50) came out at 8.33 µM.
Regarding `CC(C)OCc1cc(CN2CCN(c3cccc(Cl)c3)CC2)c(O)c2ncccc12` [MMV000788], the “Max Resp” value is on record as -97% and the “Curve Class” value is recorded as -1.1. The 50% inhibitory concentration (IC50) (read-out: IC50) was found to be 8.33 µM.
Regarding `Cl.OC(CNCc1ccccc1)Cn1c2ccccc2c2ccccc21` (stereo not drawn) [MMV000839], the “Max Resp” value is listed as -97% and the “Curve Class” value is -1.1. The IC50 (read-out: IC50) was 8.33 µM.
Taken in the same sequence, the figures for `OC(CNC1CCCC1)Cn1c2ccccc2c2ccccc21` (stereo not drawn) [MMV000848] were -93%, -1.1 and 2.09 µM.
In the case of `Cc1ccc(NC(=O)Nc2cccc(Cl)c2)cc1F` [MMV000911], the “Max Resp” value is on record as -36%, the “Curve Class” value was -2.2 and the concentration for half-maximal inhibition (IC50) result is given as “Inactive”.
Regarding `COc1ccc2c(c1OC)C(=O)N1c3ccccc3N=C(c3ccc(C)cc3)CC21` (stereo not drawn) [MMV000917], the “Max Resp” value was -63% and the “Curve Class” value is -2.2. The IC50 (read-out: IC50) is 29.6 µM.
On to `COc1ccc(Nc2nc(NCc3ccccc3)c3ccccc3n2)cc1` [MMV000963], for which the “Max Resp” value is given as -86% and the “Curve Class” value is given as -2.1. In addition, under “read-out: IC50”, the half-maximal inhibitory concentration (IC50) amounted to 9.35 µM.
In the case of `O=C1CC(O)(C(F)(F)C(F)(F)F)Oc2ccccc21` (stereo not drawn) [MMV000972], the “Max Resp” value is -32% and the “Curve Class” value is -1.4. Moreover, the IC50 (read-out: IC50) was found to be 0.743 µM.
Regarding `CN1CCN(c2nc(Nc3ccc(O)cc3)nc3ccccc23)CC1.Cl` [MMV000986], the “Max Resp” value is given as -93% and the “Curve Class” value was -1.1. Moreover, for the setting “read-out: IC50”, the concentration for half-maximal inhibition (IC50) turned out to be 6.62 µM.
`Cc1ccc(Nc2nc(NCCO)c3ccccc3n2)cc1C` [MMV001038]: the “Max Resp” value was -71% and the “Curve Class” value is -1.2. Further, the half-inhibitory concentration (IC50) (read-out: IC50) stood at 3.32 µM.
In the case of `OCCNc1nc(Nc2ccc(Cl)c(Cl)c2)nc2ccccc12` [MMV001041], the “Max Resp” value is given as -63% and the “Curve Class” value was -2.2. Under “read-out: IC50”, the IC50 was 14.8 µM.
The like results for `CC(C)c1ccc(CNCC(O)c2ccccc2)cc1.Cl` (stereo not drawn) [MMV001049] were, in that order, -76%, -1.2 and 2.35 µM.
With `CCOc1cccc2sc(N(Cc3cccnc3)C(=O)C3CCCCC3)nc12` [MMV001230], the “Max Resp” value was -26%, the “Curve Class” value turned out to be 4 and the IC50 result is listed as “Inactive”.
On to `COc1ccc2sc(N(Cc3cccnc3)C(=O)c3ccc(C#N)cc3)nc2c1` [MMV001239], for which the “Max Resp” value is -40%, the “Curve Class” value is given as -2.2 and the IC50 result is on record as “Inactive”.
`COc1ccc(C)c2sc(N(Cc3cccnc3)C(=O)c3ccc(C#N)cc3)nc12` [MMV001241]: the “Max Resp” value was -48%, the “Curve Class” value was -2.2 and the IC50 result was “Inactive”.
On to `CSc1ccccc1C(=O)Nc1nc(-c2ccccn2)cs1` [MMV001246], for which the “Max Resp” value is -72% and the “Curve Class” value is listed as -2.2. In addition, the IC50 (read-out: IC50) is 11.8 µM.
Regarding `CCCCc1ccc(NS(=O)(=O)c2cc3c4c(c2)CCN4C(=O)CC3)cc1` [MMV001255], the “Max Resp” value worked out at 2%, the “Curve Class” value was found to be 4 and the IC50 entry is on record as “Inactive”.
